Laboratory results taken from PubChem BioAssay AID248 (DTP/NCI, 2004).
Toxic doses and inconclusive results are not listed. Cut-off read from the data, not from the text of the source: active = T/C of 150% or more; inactive = T/C below 125%.

System: L1210 leukemia ip in BDF1 mice, survival T/C
Assay: NCI In Vivo Anticancer Drug Screen. Data for tumor model L1210 Leukemia (intraperitoneal) in B6D2F1 (BDF1) mice
Settings: endpoint: mean survival time, higher = longer survival
Summary of the method: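 Survival endpoint. Drug-treated group vs vehicle group, expressed as T divided by C. Tumor passaged by transplantation.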

[1] = dose: 100.0 mg/kg/injection, schedule: Q04DX003 (ip), vehicle: Klucel (hydroxypropylcellulose) (HPC)
[2] = dose: 200.0 mg/kg/injection, schedule: Q04DX003 (ip), vehicle: Klucel (hydroxypropylcellulose) (HPC)
[3] = dose: 400.0 mg/kg/injection, schedule: Q04DX003 (ip), vehicle: Klucel (hydroxypropylcellulose) (HPC)
[4] = dose: 100.0 mg/kg/injection, schedule: Q04DX002 (ip), vehicle: saline with Tween-80
[5] = dose: 200.0 mg/kg/injection, schedule: Q04DX002 (ip), vehicle: saline with Tween-80
[6] = dose: 400.0 mg/kg/injection, schedule: Q04DX002 (ip), vehicle: saline with Tween-80
[7] = dose: 50.0 mg/kg/injection, schedule: Q01DX001 (ip), vehicle: carboxymethylcellulose (CMC)
[8] = dose: 100.0 mg/kg/injection, schedule: Q01DX001 (ip), vehicle: carboxymethylcellulose (CMC)
[9] = dose: 200.0 mg/kg/injection, schedule: Q01DX001 (ip), vehicle: carboxymethylcellulose (CMC)
[10] = dose: 400.0 mg/kg/injection, schedule: Q01DX001 (ip), vehicle: carboxymethylcellulose (CMC)
[11] = dose: 12.5 mg/kg/injection, schedule: Q01DX009 (ip), vehicle: saline
[12] = dose: 25.0 mg/kg/injection, schedule: Q01DX009 (ip), vehicle: saline
[13] = dose: 25.0 mg/kg/injection, schedule: Q04DX003 (ip), vehicle: saline
[14] = dose: 50.0 mg/kg/injection, schedule: Q01DX009 (ip), vehicle: saline
[15] = dose: 50.0 mg/kg/injection, schedule: Q04DX003 (ip), vehicle: saline
[16] = dose: 100.0 mg/kg/injection, schedule: Q01DX001 (ip), vehicle: saline
[17] = dose: 100.0 mg/kg/injection, schedule: Q01DX009 (ip), vehicle: saline
[18] = dose: 200.0 mg/kg/injection, schedule: Q01DX001 (ip), vehicle: saline
[19] = dose: 400.0 mg/kg/injection, schedule: Q01DX001 (ip), vehicle: saline
[20] = dose: 100.0 mg/kg/injection, schedule: Q04DX002 (ip), vehicle: Klucel (hydroxypropylcellulose) (HPC)
[21] = dose: 200.0 mg/kg/injection, schedule: Q04DX002 (ip), vehicle: Klucel (hydroxypropylcellulose) (HPC)
[22] = dose: 400.0 mg/kg/injection, schedule: Q04DX002 (ip), vehicle: Klucel (hydroxypropylcellulose) (HPC)

Measured: T/C

O=S(=O)(OCC1CO1)c1ccc(F)cc1 (centres undefined)
inactive: dose: 100.0 mg/kg/injection, schedule: Q01DX007 (ip), vehicle: Klucel (hydroxypropylcellulose) (HPC) 103 % of control | [1] 95 % of control | dose: 200.0 mg/kg/injection, schedule: Q01DX007 (ip), vehicle: Klucel (hydroxypropylcellulose) (HPC) 114 % of control | [2] 104 % of control | dose: 400.0 mg/kg/injection, schedule: Q01DX007 (ip), vehicle: Klucel (hydroxypropylcellulose) (HPC) 103 % of control | [3] 98 % of control

Cc1cc(Cl)cc(C(=O)Cl)c1O
inactive: [4] 111 % of control | [5] 107 % of control | [6] 103 % of control

CC(=O)C(C(C)=O)C(C)=O.CC(=O)C(C(C)=O)C(C)=O.CC(=O)C(C(C)=O)C(C)=O.[Cr]
inactive: [7] 100 % of control | [8] 94 % of control | [9] 105 % of control | [10] 100 % of control

COc1ccc(CCN2C(=O)C=CC2=O)cc1OC
inactive: dose: 5.0 mg/kg/injection, schedule: Q04DX003 (ip), vehicle: saline 97 % of control | dose: 10.0 mg/kg/injection, schedule: Q04DX003 (ip), vehicle: saline 96 % of control | dose: 20.0 mg/kg/injection, schedule: Q04DX003 (ip), vehicle: saline 100 % of control

COC(=O)C1(C(=O)OC)C2CC=C(C)CC21 (centres undefined)
inactive: dose: 100.0 mg/kg/injection, schedule: Q01DX009 (ip), vehicle: acetone 100 % of control | dose: 200.0 mg/kg/injection, schedule: Q01DX009 (ip), vehicle: acetone 98 % of control | dose: 400.0 mg/kg/injection, schedule: Q01DX009 (ip), vehicle: acetone 90 % of control

CCOC(=O)CCc1ccc(N=NN(C)C(C)CC)cc1 (centres undefined)
inactive: [8] 111 % of control | [9] 105 % of control | [10] 111 % of control

CN(C)CCCCc1cn(-c2ccccc2)c2ccccc12
inactive: [11] 100 % of control | [12] 93 % of control | [13] 102 % of control | dose: 30.0 mg/kg/injection, schedule: Q01DX015 (ip), vehicle: saline 86 % of control | [14] 107 % of control | [15] 103 % of control

CC(=O)OC1CCCOC1OC(C)=O (centres undefined)
inactive: [16] 99 % of control | [17] 106 % of control | [18] 100 % of control | dose: 200.0 mg/kg/injection, schedule: Q01DX009 (ip), vehicle: saline 100 % of control | [19] 94 % of control | dose: 400.0 mg/kg/injection, schedule: Q01DX009 (ip), vehicle: saline 95 % of control

C[C@]12CC[C@H]3C(=CCc4cc(O)ccc43)[C@@H]1CCC2=O
inactive: dose: 100.0 mg/kg/injection, schedule: Q01DX001 (sc), vehicle: steriod suspending solution 94 % of control | dose: 200.0 mg/kg/injection, schedule: Q01DX001 (sc), vehicle: steriod suspending solution 100 % of control | dose: 400.0 mg/kg/injection, schedule: Q01DX001 (sc), vehicle: steriod suspending solution 91 % of control

O=C(c1ccc(N2CC=C(c3ccccc3)CC2)cc1)C1CC1
inactive: [20] 92 % of control | [21] 95 % of control | [22] 89 % of control

Cc1ccc([N+](=O)[O-])cc1N=C=O
inactive: dose: 100.0 mg/kg/injection, schedule: Q01DX009 (ip), vehicle: Klucel (hydroxypropylcellulose) (HPC) 87 % of control | [1] 96 % of control | dose: 200.0 mg/kg/injection, schedule: Q01DX009 (ip), vehicle: Klucel (hydroxypropylcellulose) (HPC) 91 % of control | [2] 97 % of control | dose: 400.0 mg/kg/injection, schedule: Q01DX009 (ip), vehicle: Klucel (hydroxypropylcellulose) (HPC) 97 % of control | [3] 97 % of control

CN1CC(=O)N2c3ccccc3CC2C1=O (centres undefined)
inactive: [4] 102 % of control | [5] 113 % of control | [6] 102 % of control

CCOC(=O)c1ccc(N2C(=O)CC(Sc3ccccc3N)C2=O)cc1 (centres undefined)
inactive: dose: 100.0 mg/kg/injection, schedule: Q01DX005 (ip), vehicle: Klucel (hydroxypropylcellulose) (HPC) 97 % of control | [20] 103 % of control | dose: 200.0 mg/kg/injection, schedule: Q01DX005 (ip), vehicle: Klucel (hydroxypropylcellulose) (HPC) 102 % of control | [21] 103 % of control | dose: 400.0 mg/kg/injection, schedule: Q01DX005 (ip), vehicle: Klucel (hydroxypropylcellulose) (HPC) 91 % of control | [22] 113 % of control

CC(=O)/C(N=Nc1ccccc1)=C(\C)O
inactive: [7] 90 % of control | dose: 50.0 mg/kg/injection, schedule: Q01DX009 (sc), vehicle: olive oil, sesame oil, peanut oil 113 % of control | [8] 97 % of control | dose: 100.0 mg/kg/injection, schedule: Q01DX009 (sc), vehicle: olive oil, sesame oil, peanut oil 113 % of control | [9] 87 % of control | dose: 200.0 mg/kg/injection, schedule: Q01DX009 (sc), vehicle: olive oil, sesame oil, peanut oil 101 % of control | [10] 95 % of control

CCOC(=O)C[n+]1ccccc1
inactive: dose: 50.0 mg/kg/injection, schedule: Q01DX009 (ip), vehicle: saline with Tween-80 98 % of control | [14] 96 % of control | dose: 100.0 mg/kg/injection, schedule: Q01DX009 (ip), vehicle: saline with Tween-80 93 % of control | [17] 102 % of control | dose: 200.0 mg/kg/injection, schedule: Q01DX009 (ip), vehicle: saline with Tween-80 91 % of control

CN1CCC(OC2c3ccccc3CCc3ccccc32)CC1
inactive: dose: 3.12 mg/kg/injection, schedule: Q01DX009 (ip), vehicle: saline 109 % of control | dose: 6.25 mg/kg/injection, schedule: Q01DX009 (ip), vehicle: saline 108 % of control | [11] 106 % of control | [12] 111 % of control | [13] 100 % of control | [14] 117 % of control | [15] 103 % of control | [17] 88 % of control | dose: 100.0 mg/kg/injection, schedule: Q04DX003 (ip), vehicle: saline 86 % of control

O=C(NCCCl)NC1CCS(=O)(=O)C1 (centres undefined)
inactive: dose: 100.0 mg/kg/injection, schedule: Q01DX001 (ip), vehicle: other 98 % of control | dose: 200.0 mg/kg/injection, schedule: Q01DX001 (ip), vehicle: other 98 % of control | dose: 400.0 mg/kg/injection, schedule: Q01DX001 (ip), vehicle: other 98 % of control

CC(=O)c1cc(C)ccc1O
inactive: [1] 93 % of control | [2] 92 % of control

O=c1cc[nH]c2ccccc12
inactive: dose: 100.0 mg/kg/injection, schedule: Q01DX001 (ip), vehicle: saline with Tween-80 96 % of control | dose: 200.0 mg/kg/injection, schedule: Q01DX001 (ip), vehicle: saline with Tween-80 97 % of control | dose: 400.0 mg/kg/injection, schedule: Q01DX001 (ip), vehicle: saline with Tween-80 103 % of control

CCCCCCCCCCCCCCCC(=O)N(CCCCN(C)C)CCCCN(C)C
inactive: dose: 2.0 mg/kg/injection, schedule: Q01DX009 (ip), vehicle: carboxymethylcellulose (CMC) 97 % of control | dose: 4.0 mg/kg/injection, schedule: Q01DX009 (ip), vehicle: carboxymethylcellulose (CMC) 98 % of control | dose: 6.0 mg/kg/injection, schedule: Q01DX009 (ip), vehicle: carboxymethylcellulose (CMC) 97 % of control

CCCCCCCC(CCCCCC)CCCCCCC
inactive: dose: 50.0 mg/kg/injection, schedule: Q04DX002 (ip), vehicle: saline with Tween-80 89 % of control | [4] 110 % of control | [5] 103 % of control | [6] 106 % of control

CCOC(=O)c1cc([N+](=O)[O-])ccc1N
inactive: [16] 100 % of control | [18] 94 % of control | [19] 94 % of control
